These are literature values, as cited in US20090246262A1, “EASILY APPLIED FIELD DRESSING FOR WOUNDS” (Valor Medical, Inc., priority 2008, published 2009).

For data set [1] the following is noted: in vivo.
The conditions of data set [2]: upon contact with moist tissues.

Take `C=C(C#N)C(=O)OC` [Eastman 910]: the histotoxicity result in data set [1] is on record as “histotoxic”. With `C=C(C#N)C(=O)OCC` [ethyl], in data set [1], the histotoxicity entry is “histotoxic”.

For `C=C(C#N)C(=O)OC` [methyl homolog, methyl cyanoacrylate], in data set [1], the histotoxicity result is “histoxicity severely limited its clinical usefulness”. In addition, the “time to polymerize (remains as a monomer)” value in data set [2] is 30 to 55 s.
